Test results: patent US20240293405A1, “(1H-PYRROLO[2,3-B]PYRIDIN-1-YL)PYRIMIDIN-2-YL-AMINO-PHENYL-ACRYLAMIDE INHIBITORS OF EGFR FOR USE IN THE TREATMENT OF BRAIN TUMORS” (Dana-Farber Cancer Institute, Inc., priority 2021, published 2024)
Values joined by “and” are separate entries in the source; they are usually repeats but may differ in a detail not shown here. Equal values may be shown once. Read-outs that look alike come from different tables or passages of the source. Blank lines part the entries; values can stand above or below the compound they belong to.

What was measured:
P-gp, Bcrp = settings: previously published report; cited from earlier work
[1] = system: 468 human kinases and disease relevant mutant variants; assay: Kinase selectivity binding panel (468 kinases); settings: 468 kinase panel, 1 μM free base
Experimental: Compound 1 and Compound 2 (major metabolite) were evaluated in a panel of 468 human kinases and disease relevant mutant variants. Compound 1 and Compound 2 bound to few non-mutant kinases at <1% of control. […] While there is some variability between Compound 1 and Compound 2, it is clear that both compounds are very effective at binding to a large panel of mutant kinases. […] Binding constant to wild type EGFR was 4.9 nM.

[2] = Brain and plasma exposure after 5 hour intravenous infusion; type: in vivo, Sprague Dawley rats; settings: for Kp at 5 h: iv, read-out: Brain/Plasma (ratios)
Experimental: A single IV infustion for 5 hours was administered to each animal, which were then twice observed clinically (30 minutes to 1 hour post-posing and at the end of the study (TTerminal). Blood samples were collected at 5 time points from each animal over the 5 hour infusion period (5 minutes, 1 hour, 2, hours, 3 hours and TTerminal) and processed to plasma. Brains were collected at Tterminal (blotted, weighed, and snap frozen) and brain exposure was compared. […]

[3] = Pharmacokinetics in rats (IV, PO); type: in vivo, rat; settings: rat, plasma, Compound 2 as metabolite
Description: Exposure was generally dose proportional.

[4] = Cardiovascular function (telemetry); type: in vivo, dog; settings: plasma; dog, 100 mg/kg Compound 1 PO; M38 as metabolite; read-out: estimated single-dose Cmax
Experimental: This arrythmia was not associated with maximum plasma concentration (Cmax) or Tmax of either parent or metabolite. No definitive link to the test article could be identified. Given the unexplained reversible arrythmia in this high-dose (100 mg/kg) telemetry dog, routine electrocardiogram (ECG) monitoring in Phase 1 is recommended.

[5] = Oral dog 4-week toxicity study with toxicokinetics; type: in vivo, beagle dogs; settings: beagle, in vivo, dog Day 28 mean, Compound 2 as metabolite; for AUC(0-t): read-out: AUC0-24
Experimental: Compound 1 (0, 10, 30, and 100 mg/kg/day) was given orally, once daily by gavage, to male and female beagle dogs (4/sex) for up to 28 days. […] The cause of death in this high-dose male was attributed to myocardial degeneration. This lesion was not observed in any other dog on study. Increases in alkaline phosphatase, globulin, cholesterol, triglycerides and fibrinogen and decreased reticulocyte counts noted in the high-dose group at mid-study returned towards baseline by the end of the study following 11/12 days of recovery. Testicular changes at all doses (seminiferous epithelial vacuolation at 10 and 30 mg/kg and degeneration/atrophy at 100 mg/kg) were not reversible in this short-term study; the reversibility period was not long enough to assess reversibility of testicular changes.
The increases were generally dose-proportional or greater-than dose-proportional on Day 1 and Day 28. Gender difference was not observed. No significant accumulation of Compound 1 or Compound 2 was observed.
Thirty-two beagle dogs (conventional, naive) were divided into four groups. Each group consists of four male and four female. Group 1 beagle dogs were administered vehicle and groups 2-4 beagle dogs were administered Compound 1 at 10 mg/kg, 30 mg/kg, and 100 mg/kg, respectively, by oral gavage once daily for 28 consecutive days (Table 15). […] Cmax (ng/mL) and AUClast (hr*ng/mL) of Compound 1 on day 1 were obtained for groups 2-4 (Table 15).

BT112 cells = assay: Cell viability, patient-derived GBM line BT112; settings: Homo sapiens, 72 h
Experimental: (§1) Primary human glioblastoma lines BT112, BT179 and BT333 were maintained in NeuroCult proliferation medium (human) (StemCell Technologies) with 20 ng/ml EGF, 10 ng/ml FGF and 0.0002% Heparin.
(§2) Cells were seeded in 96-well plates at a density of 1,000 cells per well and treated with two-fold serial dilutions of compounds with a starting concentration of 20 μM. Cell viability was assessed after three days of treatment by CellTiter-Glo (Promega). Curve fitting analysis and IC50 value determination were performed using GraphPad Prism 8.

BT333 cells = assay: Cell viability, patient-derived GBM line BT333; settings: Homo sapiens, 72 h
Experimental: as §1, §2

BT179 cells = assay: Cell viability, patient-derived GBM line BT179; settings: Homo sapiens, 72 h
Experimental: as §1, §2

Glioblastoma = settings: previously published report, cited from earlier work
[6] = Brain and plasma exposure after single oral dose; type: in vivo, Sprague Dawley rats; settings: Sprague Dawley, rat, 50 mg/kg, gefitinib 50 mg/kg PO, 7 hr; for concentration at 7 h: oral
[7] = Brain and plasma exposure after single oral dose; type: in vivo, Sprague Dawley rats; settings: gefitinib 50 mg/kg PO
Description: Genfitinib concentrations were quantitated by LC-MS/MS from brain and plasma from Group 1 animals.

[8] = 3 mg/kg IV infusion over 5 h, 5 h, individual animal, Compound 2 as metabolite in Compound 1-dosed rats
[9] = male, Sprague Dawley, rat, brain, intravenous, 3 mg/kg, 3 mg/kg IV infusion over 5 h, 5 h, individual animal, Compound 2 as metabolite in Compound 1-dosed rats, read-out: Brain Tissue Concentration
[10] = male, Sprague Dawley, rat, brain, intravenous, 3 mg/kg, 3 mg/kg IV infusion over 5 h, 5 h, mean n=6, Compound 2 as metabolite, read-out: Brain Tissue Concentration
[11] = male, Sprague Dawley, rat, plasma, intravenous, 3 mg/kg, 3 mg/kg IV infusion over 5 h, 1 h, individual animal, Compound 2 as metabolite in Compound 1-dosed rats
[12] = male, Sprague Dawley, rat, plasma, intravenous, 3 mg/kg, 3 mg/kg IV infusion over 5 h, 2 h, individual animal, Compound 2 as metabolite in Compound 1-dosed rats
[13] = male, Sprague Dawley, rat, plasma, intravenous, 3 mg/kg, 3 mg/kg IV infusion over 5 h, 5 h, individual animal, Compound 2 as metabolite in Compound 1-dosed rats, read-out: Plasma Concentration
[14] = female, 10 mg/kg Compound 1 PO, F
[15] = female, 30 mg/kg Compound 1 PO, F
[16] = male, 10 mg/kg Compound 1 PO, M
[17] = male, 30 mg/kg Compound 1 PO, M

Compound: CN(C)C/C=C/C(=O)Nc1cc2c(Nc3ccc(F)c(Cl)c3)ncnc2cc1O[C@H]1CCOC1 [Afatinib]
Efflux Liability (P-gp, Bcrp): P-gp, Bcrp

Compound: C=CC(=O)Nc1cc(Nc2nccc(-n3ccc4cccnc43)n2)c(OC)cc1N(C)CCNC [Compound 2, N-(5-((4-(1H-pyrrolo[2,3-b]pyridin-1-yl)pyrimidin-2-yl)amino)-4-methoxy-2-(methyl(2-(methylamino)ethyl)amino)phenyl)acrylamide]
targeted non-mutant kinases (bound at <1% of control) [1]: ERBB2, JAK3 (JH1-domain-catalytic), MKNK2, MTOR, OSR1 and TNK1
Plasma Concentration ([2]; 3 mg/kg IV infusion over 5 h, 0.083 h, individual animal, Compound 2 as metabolite in Compound 1-dosed rats): BLQ
Plasma Concentration ([2]; 3 mg/kg IV infusion over 5 h, 0.083 h, mean n=6, Compound 2 as metabolite): BLQ
Plasma Concentration ([2]; 3 mg/kg IV infusion over 5 h, 1 h, individual animal, Compound 2 as metabolite in Compound 1-dosed rats): 3.47 ng/mL (2×) and 3.14 ng/mL and 3.28 ng/mL and 2.71 ng/mL
Plasma Concentration ([2]; 3 mg/kg IV infusion over 5 h, 2 h, individual animal, Compound 2 as metabolite in Compound 1-dosed rats): 7.75 ng/mL and 6.99 ng/mL and 8.41 ng/mL and 7.39 ng/mL and 6.20 ng/mL
Plasma Concentration ([2]; 3 mg/kg IV infusion over 5 h, 3 h, individual animal, Compound 2 as metabolite in Compound 1-dosed rats): 12.9 ng/mL and 10.6 ng/mL and 12.7 ng/mL and 12.5 ng/mL and 12.3 ng/mL
Brain Tissue Concentration [2, 8]: 23.6 ng/g and 20.9 ng/g and 21.0 ng/g and 21.6 ng/g and 19.8 ng/g
Brain/Plasma (ratios) [2, 8]: 1.30 and 1.07 and 1.11 and 1.06
Plasma Concentration [2, 8]: 18.1 ng/mL and 19.6 ng/mL and 18.9 ng/mL and 20.4 ng/mL and 16.8 ng/mL
brain exposure relative to plasma ([2]; Compound 2 as metabolite, rat): essentially equal to plasma
concentration at 5 h [2, 9]: 24.5 ng/g
concentration at 5 h [2, 10]: 21.9 ng/g
Kp at 5 h ([2]; male, Sprague Dawley, rat, brain, 3 mg/kg, 3 mg/kg IV infusion over 5 h, 5 h, individual animal, Compound 2 as metabolite in Compound 1-dosed rats): 1.35
Kp at 5 h ([2]; male, Sprague Dawley, rat, brain, 3 mg/kg, 3 mg/kg IV infusion over 5 h, 5 h, mean n=6, Compound 2 as metabolite): 1.18
concentration at 1 h [2, 11]: 3.24 ng/mL
concentration at 1 h ([2]; male, Sprague Dawley, rat, plasma, intravenous, 3 mg/kg, 3 mg/kg IV infusion over 5 h, 1 h, mean n=6, Compound 2 as metabolite): 3.22 ng/mL
concentration at 2 h [2, 12]: 5.62 ng/mL
concentration at 2 h ([2]; male, Sprague Dawley, rat, plasma, intravenous, 3 mg/kg, 3 mg/kg IV infusion over 5 h, 2 h, mean n=6, Compound 2 as metabolite): 7.06 ng/mL
concentration at 3 h ([2]; male, Sprague Dawley, rat, plasma, intravenous, 3 mg/kg, 3 mg/kg IV infusion over 5 h, 3 h, individual animal, Compound 2 as metabolite in Compound 1-dosed rats): 12.9 ng/mL
concentration at 3 h ([2]; male, Sprague Dawley, rat, plasma, intravenous, 3 mg/kg, 3 mg/kg IV infusion over 5 h, 3 h, mean n=6, Compound 2 as metabolite): 12.3 ng/mL
concentration at 5 h [2, 13]: 18.2 ng/mL
concentration at 5 h ([2]; male, Sprague Dawley, rat, plasma, intravenous, 3 mg/kg, 3 mg/kg IV infusion over 5 h, 5 h, mean n=6, Compound 2 as metabolite, read-out: Plasma Concentration): 18.7 ng/mL
half-life [3]: ~9 h
Tmax ([3]; po): ~7 h
Cmax [4]: ~367 ng/mL and ~750 nM
Cmax [5, 14]: 242 ng/mL
AUC(0-t) [5, 14]: 3360 ng·h/mL
Cmax [5, 15]: 161 ng/mL
AUC(0-t) [5, 15]: 1790 ng·h/mL
Cmax [5, 16]: 143 ng/mL
AUC(0-t) [5, 16]: 1420 ng·h/mL
Cmax [5, 17]: 263 ng/mL
AUC(0-t) [5, 17]: 2980 ng·h/mL

Compound: C#Cc1cccc(Nc2ncnc3cc(OCCOC)c(OCCOC)cc23)c1 [Erlotinib]
IC50 (BT112 cells): 18.5 µM
IC50 (BT333 cells): 52.3 µM
IC50 (BT179 cells): 11.7 µM
Efflux Liability (P-gp, Bcrp): P-gp, Bcrp
Glioblastoma (treatment outcome) (Glioblastoma): Failed
Glioblastoma (treatment outcome) (Glioblastoma; listed as erlotinib): failed

concentration at 7 h ([6]; brain, individual animal, read-out: Brain Tissue Concentration): 561 ng/g
concentration at 7 h ([6]; brain, mean n=3, read-out: Brain Tissue Concentration): 596 ng/g
Kp at 7 h ([6]; brain, po, mean n=3, read-out: Brain/Plasma (ratios)): 0.22
concentration at 7 h ([6]; plasma, mean n=3, read-out: Plasma Concentration): 2660 ng/mL
concentration at 5 h [2, 9]: 155 ng/g
concentration at 5 h [2, 10]: 154 ng/g
concentration at 0.083 h ([2]; male, Sprague Dawley, rat, plasma, intravenous, 3 mg/kg, 3 mg/kg IV infusion over 5 h, 0.083 h, individual animal, Compound 2 as metabolite in Compound 1-dosed rats): 55.6 ng/mL
concentration at 1 h [2, 11]: 115 ng/mL
concentration at 2 h [2, 12]: 161 ng/mL
concentration at 5 h [2, 13]: 286 ng/mL
concentration at 3 h ([7]; Sprague Dawley, rat, plasma, oral, 50 mg/kg, 3 hr, mean n=3): 1950 ng/mL
Plasma Concentration ([7]; 3 hr, individual animal): 2660 ng/mL and 1940 ng/mL and 1260 ng/mL
Brain Tissue Concentration ([7]; 7 hr, individual animal): 666 ng/g and 562 ng/g and 561 ng/g
Plasma Concentration ([7]; 7 hr, individual animal): 2240 ng/mL and 4700 ng/mL and 1030 ng/mL
Compound: COc1cc2ncnc(Nc3ccc(F)c(Cl)c3)c2cc1OCCCN1CCOCC1 [Gefitinib, reference compound]
Brain Tissue Concentration [2, 8]: 153 ng/g and 129 ng/g and 151 ng/g and 149 ng/g and 189 ng/g and 155 ng/g
Efflux Liability (P-gp, Bcrp): P-gp, Bcrp
Glioblastoma (treatment outcome) (Glioblastoma): Failed
Glioblastoma (treatment outcome) (Glioblastoma; listed as gefitinib): failed

IC50 (BT112 cells): 5.22 µM
IC50 (BT333 cells): 7.91 µM
IC50 (BT179 cells): 2.32 µM
Compound: CS(=O)(=O)CCNCc1ccc(-c2ccc3ncnc(Nc4ccc(OCc5cccc(F)c5)c(Cl)c4)c3c2)o1 [Lapatinib]

Compound: COc1cc2ncnc(Nc3ccc(F)c(Cl)c3)c2cc1NC(=O)/C=C/CN1CCCCC1 [Vizimpro]
Glioblastoma (treatment outcome) (Glioblastoma): Failed
Glioblastoma (treatment outcome) (Glioblastoma; listed as visimpro): failed
